The test system of data set [1] is Kelly Neuroblastoma cells. Description: ATPlite Luminescence viability assay, Kelly neuroblastoma cells, 72 h. It counts as cell-based. As to conditions: Kelly Neuroblastoma cells; for IC50: ATPlite. The method, then:
Kelly Neuroblastoma cells were seeded at 1,000 cells per well in 384 well, white plates and were treated in a dose-dependent manner for 72 h.
For orientation: ATP-based viability assays read luminescence as a measure of living cells.

The target of a further data set is CBP bromodomain (Homo sapiens (Human), UniProt Q92793). Description: CBP (Bromodomain) AlphaScreen Assay. It counts as binding. As to conditions: FIG. 6. The method, then:
Assays were performed with minimal modifications from the manufacturer's protocol (PerkinElmer®, USA). All reagents were diluted in 50 mM 4-(2-hydroxyethyl)-1-piperazineethanesulfonic acid (HEPES), 150 mM NaCl, 0.1% w/v bovine serum albumin (BSA), 0.01% w/v Tween® 20, pH 7.5 and allowed to equilibrate to room temperature prior to addition to plates. After addition of AlphaScreen® acceptor beads to master solutions, all subsequent steps were performed under low light conditions. […] Plates were spun down at 150×g, 100 nL of compound in dimethyl sulfoxide (DMSO) from stock plates were added by pin transfer using a Janus® Workstation (PerkinElmer®, USA). The streptavidin-coated donor beads (10 ng/ml final) were added as with previous the solution in a 2×10 μL volume. Following this addition, plates were sealed with foil to prevent light exposure and evaporation. The plates were spun down again at 150×g.
In general terms: Bead proximity is the source of the signal in Alpha formats.

Another data set has as its target EP300 (Homo sapiens (Human), UniProt Q09472). Briefly: Western blot for EP300 degradation in Kelly NB cells. It counts as cell-based. The method, then: (§1) […] Whole cell lysates were collected using ice cold lysis buffer [300 mM NaCl, 50 mM Tris-HCl, pH 7.5, 0.5% Triton X-100, 1% sodium dodecyl sulfate (SDS), 1 mM dithiothreitol (DTT) (Invitrogen™), Roche®'s cOmplete™ protease inhibitor cocktail (1:000), 25 units/mL Benzonase®] and blotted at a protein concentration of 30 μg for EP300 and CBP and 10 μg for histone H3 and H3K27ac. Lysates were also blotted for bromodomain-containing protein 4 (BRD4). Lysates were resolved in NuPAGE™ 3-8% Tris-Acetate polyacrylamide gels (EA03785BOX, Invitrogen™) for EP300 and CBP and Bolt 4-12% Bis-Tris polyacrylamide gels (NW04125BOX, Invitrogen™) for H3 and H3K27ac. Afterwards, gels were transferred to nitrocellulose membranes (LC2001, Invitrogen™). […] Visualization was performed on an Odyssey infrared imaging system (LiCor® Biosciences).
A general note: In western blotting, separated proteins are transferred to a membrane and probed.

Another data set addresses CBP (Homo sapiens (Human), UniProt Q92793). Description: Western blot for CBP degradation in Kelly NB cells. It counts as cell-based. The method, then:
as §1

A further data set has as its system H3K27ac. Briefly: Western blot for H3K27ac levels in Kelly NB cells. As to conditions: 24 hours, concentration not given. It counts as cell-based. The procedure: (§2) Kelly Neuroblastoma cells were seeded at 1,000,000 cells per well in 6 well plates and were treated in a dose-dependent manner for 24 hours. Whole cell lysates were collected using ice cold lysis buffer [300 mM NaCl, 50 mM Tris-HCl, pH 7.5, 0.5% Triton X-100, 1% sodium dodecyl sulfate (SDS), 1 mM dithiothreitol (DTT) (Invitrogen™), Roche®'s cOmplete™ protease inhibitor cocktail (1:000), 25 units/mL Benzonase®] and blotted at a protein concentration of 30 μg for EP300 and CBP and 10 μg for histone H3 and H3K27ac. Lysates were also blotted for bromodomain-containing protein 4 (BRD4). Lysates were resolved in NuPAGE™ 3-8% Tris-Acetate polyacrylamide gels (EA03785BOX, Invitrogen™) for EP300 and CBP and Bolt 4-12% Bis-Tris polyacrylamide gels (NW04125BOX, Invitrogen™) for H3 and H3K27ac. Afterwards, gels were transferred to nitrocellulose membranes (LC2001, Invitrogen™). […] Visualization was performed on an Odyssey infrared imaging system (LiCor® Biosciences).

In another data set the test system is BRD2/3/4. Briefly: Western blot, selectivity against BRD2/3/4 in Kelly NB cells. It counts as cell-based. The conditions noted are these: 8 and 16 hours. The method, then: […] Whole cell lysates were collected using ice cold lysis buffer [300 mM NaCl, 50 mM Tris-HCl, pH 7.5, 0.5% Triton X-100, 1% sodium dodecyl sulfate (SDS), 1 mM dithiothreitol (DTT) (Invitrogen™), Roche®'s cOmplete™ protease inhibitor cocktail (1:000), 25 units/mL Benzonase®] and blotted at a protein concentration of 30 μg for EP300 and CBP and 10 μg for histone H3 and H3K27ac. Lysates were also blotted for bromodomain-containing protein 4 (BRD4). Lysates were resolved in NuPAGE™ 3-8% Tris-Acetate polyacrylamide gels (EA03785BOX, Invitrogen™) for EP300 and CBP and Bolt 4-12% Bis-Tris polyacrylamide gels (NW04125BOX, Invitrogen™) for H3 and H3K27ac. Afterwards, gels were transferred to nitrocellulose membranes (LC2001, Invitrogen™). Primary and secondary antibodies used included anti-p300 at 1:500 dilution (ab10485, Abcam®), anti-CBP at 1:500 dilution (D6C5, Cell Signaling Technology®), anti-Actin at 1:5000 dilution (3700S, Cell Signaling Technology®), anti-H3 at 1:1000 dilution (4499S, Cell Signaling Technology®), anti-H3K27ac at 1:1000 dilution (ab4729, Abcam®), IRDye®800 goat anti-rabbit at 1:5000 dilution (926-32211, LiCor® Biosciences) and IRDye®680 goat anti-mouse at 1:5000 dilution (926-68070, LiCor®). Visualization was performed on an Odyssey infrared imaging system (LiCor® Biosciences).

Data set [2] concerns Kelly Neuroblastoma cells. Briefly: Western blot experiment, cytotoxicity observed in Kelly NB cells. It counts as cell-based. The conditions noted are these: 24 hours. The method, then: as §2
Where [3] appears, read: 24 hours, concentration not given.

This note sets out measurements from US12496348B2, “Small molecule target bromo/acetyl proteins and uses thereof” (DANA-FARBER CANCER INSTITUTE, INC., priority 2019, dated 2025).

Where two headings read alike, the source gives them in different places.

EP300, sequence (Q09472 whole entry): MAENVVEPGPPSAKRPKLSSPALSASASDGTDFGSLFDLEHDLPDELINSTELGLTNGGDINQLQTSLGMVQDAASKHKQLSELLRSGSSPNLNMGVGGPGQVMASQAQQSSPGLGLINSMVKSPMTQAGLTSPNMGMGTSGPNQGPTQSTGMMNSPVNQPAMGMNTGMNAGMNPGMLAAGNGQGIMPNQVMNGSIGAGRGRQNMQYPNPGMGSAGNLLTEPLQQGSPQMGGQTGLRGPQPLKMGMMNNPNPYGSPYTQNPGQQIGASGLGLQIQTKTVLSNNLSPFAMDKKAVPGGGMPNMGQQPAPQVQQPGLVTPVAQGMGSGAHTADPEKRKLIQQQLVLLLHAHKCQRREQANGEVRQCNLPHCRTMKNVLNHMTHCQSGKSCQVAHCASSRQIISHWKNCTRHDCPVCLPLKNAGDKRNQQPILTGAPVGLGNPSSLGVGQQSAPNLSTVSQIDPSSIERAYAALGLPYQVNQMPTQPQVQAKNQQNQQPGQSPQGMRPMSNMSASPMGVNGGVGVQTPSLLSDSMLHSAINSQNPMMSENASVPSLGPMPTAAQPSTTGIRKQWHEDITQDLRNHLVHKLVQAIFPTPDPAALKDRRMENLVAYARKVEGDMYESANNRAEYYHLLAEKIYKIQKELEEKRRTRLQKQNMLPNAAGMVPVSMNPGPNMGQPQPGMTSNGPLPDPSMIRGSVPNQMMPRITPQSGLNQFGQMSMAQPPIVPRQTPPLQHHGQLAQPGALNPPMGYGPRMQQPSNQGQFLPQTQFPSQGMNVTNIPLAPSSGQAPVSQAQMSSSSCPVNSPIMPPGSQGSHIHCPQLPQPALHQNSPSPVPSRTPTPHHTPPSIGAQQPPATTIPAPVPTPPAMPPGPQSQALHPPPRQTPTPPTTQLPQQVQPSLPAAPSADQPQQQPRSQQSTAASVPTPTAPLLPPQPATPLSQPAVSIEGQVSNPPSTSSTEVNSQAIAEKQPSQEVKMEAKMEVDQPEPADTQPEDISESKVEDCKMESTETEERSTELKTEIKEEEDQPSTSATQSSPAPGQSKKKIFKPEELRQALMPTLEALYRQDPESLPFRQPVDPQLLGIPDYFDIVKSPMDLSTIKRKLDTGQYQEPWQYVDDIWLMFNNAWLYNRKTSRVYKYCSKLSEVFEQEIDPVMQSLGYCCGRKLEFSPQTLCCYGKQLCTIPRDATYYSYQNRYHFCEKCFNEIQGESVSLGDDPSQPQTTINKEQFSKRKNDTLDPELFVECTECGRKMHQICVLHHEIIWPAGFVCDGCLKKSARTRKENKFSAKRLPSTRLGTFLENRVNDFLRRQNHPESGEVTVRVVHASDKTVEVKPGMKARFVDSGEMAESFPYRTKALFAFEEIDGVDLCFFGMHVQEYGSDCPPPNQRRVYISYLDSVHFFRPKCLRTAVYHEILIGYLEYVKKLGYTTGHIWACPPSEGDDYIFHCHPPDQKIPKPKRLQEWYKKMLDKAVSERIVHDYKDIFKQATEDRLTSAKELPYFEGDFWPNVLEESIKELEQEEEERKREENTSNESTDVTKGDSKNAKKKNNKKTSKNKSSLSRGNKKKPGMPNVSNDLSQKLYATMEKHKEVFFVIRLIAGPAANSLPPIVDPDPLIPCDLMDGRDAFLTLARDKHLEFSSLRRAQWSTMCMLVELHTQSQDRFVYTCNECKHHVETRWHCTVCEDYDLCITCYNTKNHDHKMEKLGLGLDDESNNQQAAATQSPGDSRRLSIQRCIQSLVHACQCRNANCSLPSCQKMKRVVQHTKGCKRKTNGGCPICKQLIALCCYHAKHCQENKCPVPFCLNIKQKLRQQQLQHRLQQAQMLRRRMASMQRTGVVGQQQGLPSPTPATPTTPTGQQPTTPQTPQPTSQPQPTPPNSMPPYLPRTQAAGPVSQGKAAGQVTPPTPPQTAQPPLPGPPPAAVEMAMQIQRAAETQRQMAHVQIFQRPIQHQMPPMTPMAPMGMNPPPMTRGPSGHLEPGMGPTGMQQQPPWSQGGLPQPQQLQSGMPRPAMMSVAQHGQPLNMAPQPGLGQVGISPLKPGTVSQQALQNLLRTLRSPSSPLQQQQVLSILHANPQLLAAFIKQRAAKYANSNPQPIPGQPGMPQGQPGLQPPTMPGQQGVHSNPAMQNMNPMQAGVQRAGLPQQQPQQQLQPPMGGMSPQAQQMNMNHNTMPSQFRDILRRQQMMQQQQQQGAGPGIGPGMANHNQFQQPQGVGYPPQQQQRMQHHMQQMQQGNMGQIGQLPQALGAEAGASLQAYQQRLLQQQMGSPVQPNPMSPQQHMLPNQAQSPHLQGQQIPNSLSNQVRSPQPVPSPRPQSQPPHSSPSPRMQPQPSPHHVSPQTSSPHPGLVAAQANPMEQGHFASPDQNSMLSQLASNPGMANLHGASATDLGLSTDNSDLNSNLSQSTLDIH
CBP bromodomain, sequence (Q92793 1085-1192): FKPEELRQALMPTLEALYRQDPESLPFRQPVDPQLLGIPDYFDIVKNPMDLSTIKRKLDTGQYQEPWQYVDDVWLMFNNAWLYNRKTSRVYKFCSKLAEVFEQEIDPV
CBP, sequence (Q92793 whole entry): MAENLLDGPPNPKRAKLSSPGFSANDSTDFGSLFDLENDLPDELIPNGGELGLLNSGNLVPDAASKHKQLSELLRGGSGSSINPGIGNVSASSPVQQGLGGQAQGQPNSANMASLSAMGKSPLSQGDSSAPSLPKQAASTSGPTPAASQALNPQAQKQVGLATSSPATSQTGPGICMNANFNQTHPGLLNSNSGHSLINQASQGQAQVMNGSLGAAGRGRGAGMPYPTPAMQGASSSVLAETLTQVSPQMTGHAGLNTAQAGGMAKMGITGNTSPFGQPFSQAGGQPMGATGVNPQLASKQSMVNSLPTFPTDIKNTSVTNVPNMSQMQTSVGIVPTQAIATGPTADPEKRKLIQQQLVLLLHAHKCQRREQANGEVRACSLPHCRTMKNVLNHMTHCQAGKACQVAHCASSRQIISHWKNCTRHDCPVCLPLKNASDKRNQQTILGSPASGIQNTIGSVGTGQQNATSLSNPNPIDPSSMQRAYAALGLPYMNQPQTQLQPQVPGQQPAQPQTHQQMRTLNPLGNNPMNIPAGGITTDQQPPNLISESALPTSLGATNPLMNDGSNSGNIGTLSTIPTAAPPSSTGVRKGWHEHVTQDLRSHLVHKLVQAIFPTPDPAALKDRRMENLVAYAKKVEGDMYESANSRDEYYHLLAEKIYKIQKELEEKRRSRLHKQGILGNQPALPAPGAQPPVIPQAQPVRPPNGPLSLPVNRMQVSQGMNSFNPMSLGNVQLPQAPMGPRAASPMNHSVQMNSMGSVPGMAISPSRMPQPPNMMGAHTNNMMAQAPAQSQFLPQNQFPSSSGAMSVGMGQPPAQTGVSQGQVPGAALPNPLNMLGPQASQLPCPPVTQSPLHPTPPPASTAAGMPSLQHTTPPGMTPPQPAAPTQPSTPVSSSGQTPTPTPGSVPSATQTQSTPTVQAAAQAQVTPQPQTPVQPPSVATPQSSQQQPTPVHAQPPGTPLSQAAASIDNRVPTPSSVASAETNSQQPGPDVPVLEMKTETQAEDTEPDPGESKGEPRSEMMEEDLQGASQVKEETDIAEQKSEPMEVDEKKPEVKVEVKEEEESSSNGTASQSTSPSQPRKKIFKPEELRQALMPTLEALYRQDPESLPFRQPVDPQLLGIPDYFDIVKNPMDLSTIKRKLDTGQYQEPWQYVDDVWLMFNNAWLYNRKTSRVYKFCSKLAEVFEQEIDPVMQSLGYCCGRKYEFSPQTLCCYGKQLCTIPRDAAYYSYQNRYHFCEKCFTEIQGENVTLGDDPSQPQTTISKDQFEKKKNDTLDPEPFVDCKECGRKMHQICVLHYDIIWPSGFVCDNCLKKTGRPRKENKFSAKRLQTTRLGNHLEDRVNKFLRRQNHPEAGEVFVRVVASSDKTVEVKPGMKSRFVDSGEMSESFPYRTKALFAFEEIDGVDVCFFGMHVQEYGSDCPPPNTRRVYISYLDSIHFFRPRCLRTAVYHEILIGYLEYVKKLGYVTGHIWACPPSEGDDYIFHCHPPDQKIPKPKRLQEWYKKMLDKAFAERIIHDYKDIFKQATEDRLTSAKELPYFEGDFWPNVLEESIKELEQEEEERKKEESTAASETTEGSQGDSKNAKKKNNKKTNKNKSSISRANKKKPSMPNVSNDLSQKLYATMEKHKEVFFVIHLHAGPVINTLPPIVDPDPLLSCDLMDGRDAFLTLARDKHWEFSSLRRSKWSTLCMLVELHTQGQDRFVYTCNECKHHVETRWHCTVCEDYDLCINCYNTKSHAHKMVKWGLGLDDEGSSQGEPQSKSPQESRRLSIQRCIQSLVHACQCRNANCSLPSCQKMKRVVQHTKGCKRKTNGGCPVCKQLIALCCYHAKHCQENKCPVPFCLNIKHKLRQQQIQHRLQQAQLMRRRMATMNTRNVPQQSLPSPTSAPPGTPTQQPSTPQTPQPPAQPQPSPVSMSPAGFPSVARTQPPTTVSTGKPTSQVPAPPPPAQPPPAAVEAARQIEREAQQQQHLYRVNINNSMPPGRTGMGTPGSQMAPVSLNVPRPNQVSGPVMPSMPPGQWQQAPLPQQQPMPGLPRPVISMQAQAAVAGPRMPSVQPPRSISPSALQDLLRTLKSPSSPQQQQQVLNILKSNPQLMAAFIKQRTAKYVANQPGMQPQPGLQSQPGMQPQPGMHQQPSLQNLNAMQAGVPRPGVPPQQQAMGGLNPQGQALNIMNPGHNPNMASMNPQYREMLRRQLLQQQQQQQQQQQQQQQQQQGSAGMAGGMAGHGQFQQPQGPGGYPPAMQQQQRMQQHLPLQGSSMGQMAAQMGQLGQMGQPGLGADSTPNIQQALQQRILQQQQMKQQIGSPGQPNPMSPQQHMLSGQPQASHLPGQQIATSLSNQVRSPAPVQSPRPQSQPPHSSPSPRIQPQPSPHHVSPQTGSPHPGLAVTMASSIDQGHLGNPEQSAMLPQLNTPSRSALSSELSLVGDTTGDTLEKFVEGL

What is called IC50 is the concentration at which inhibition is half-maximal. As to `Cc1noc(C)c1-c1ccc2nc(-c3ccc(N4CCN(C(=O)CCOCCOCCOCCNc5cccc6c5C(=O)N(C5CCC(=O)NC5=O)C6=O)CC4)cc3)c(NC3CCCCC3)n2c1` (stereo not drawn) [Compound 2, 4-((2-(2-(2-(3-(4-(4-(3-(cyclohexylamino)-6-(3,5-dimethylisoxazol-4-yl)imidazo[1,2-a]pyridin-2-yl)phenyl)piperazin-1-yl)-3-oxopropoxy)ethoxy)ethoxy)ethyl)amino)-2-(2,6-dioxopiperidin-3-yl)isoindoline-1,3-dione], the IC50 is under 0.1 µM in data set [1] (class symbols, read-out: IC50 of inventive bispecific compounds) and 0.0918 ± 0.00658 µM in data set [1] (read-out: IC50). In addition, the “IC50 potency relative to A485” value in data set [1] (more potent than A485) was “about 10 fold”. Further, the “bound to CBP (bromodomain), range” value at CBP bromodomain is about 10 µM. The “EP300 degradation (immunoblot)” value at EP300 (setting [3]) is reported as “potent degrader”. Also, on CBP (setting [3]), the “CBP degradation (immunoblot)” value was “potent degrader”. Besides, in the data set on H3K27ac, the “H3K27ac / acetylation levels (immunoblot)” value is recorded as “evident reduction”.

As to `C[C@@H]1CC(=O)Nc2cccc(-c3ccc4c(c3)c(-c3cnn(C(=O)CCCCCCCCCNc5cccc6c5C(=O)N(C5CCC(=O)NC5=O)C6=O)c3)nn4C)c2N1` (stereo partly drawn) [Compound 31, 2-(2,6-dioxopiperidin-3-yl)-4-((10-(4-(1-methyl-5-((R)-4-methyl-2-oxo-2,3,4,5-tetrahydro-1H-benzo[b][1,4]diazepin-6-yl)-1H-indazol-3-yl)-1H-pyrazol-1-yl)-10-oxodecyl)amino)isoindoline-1,3-dione], the “P300 degradation (immunoblot)” value on EP300 (8 and 16 hours, at 3 μM) is “noticeable degradation”. For the same molecule, the “CBP degradation (immunoblot)” value at CBP (8 and 16 hours, at 3 μM) is “noticeable degradation”. In the data set with BRD2/3/4, the “selectivity of P300 and CBP degradation against BRD2/3/4” value was “selective”.

On to `Cc1noc(C)c1-c1ccc2nc(-c3ccc(N4CCNCC4)cc3)c(NC3CCCCC3)n2c1.Cl` [Int-2], for which the “bound to CBP (bromodomain), range” value at CBP bromodomain was about 10 µM. Moreover, the general cytotoxicity result in data set [2] is recorded as “general cytotoxicity”.
